{
  "source": "patent US9603889B2",
  "about": "“IAP antagonists” (BRISTOL-MYERS SQUIBB COMPANY, priority 2012, dated 2017)",
  "note": "Counter-ions that a name gives are not always drawn.",
  "data": [
    {"target": "XIAP BIR3 (N-His-Tb-BIR3(241-356, XIAP)) (Homo sapiens (Human), UniProt P98170)", "sequence (P98170 241-356)": "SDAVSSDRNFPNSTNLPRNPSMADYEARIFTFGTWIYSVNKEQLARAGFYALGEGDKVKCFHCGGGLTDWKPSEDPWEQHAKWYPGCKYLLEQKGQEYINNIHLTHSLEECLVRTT", "assay_type": "binding", "conditions": "130 nM N-His-Tb-BIR3(241-356, XIAP), 1.4 nM fluoresceinated modified SMAC peptide, 60 minutes room temperature; read-out: XIAP BIR3 FPA IC50", "units": {"IC50": "µM"}, "values": [
      {"smiles": "CN[C@@H](C)C(=O)N[C@H](C(=O)N1Cc2ccccc2C[C@H]1CN(Cc1cccc(C)c1C)C(=O)c1ccc(C(=O)Nc2ccc3c(c2)CN(C(=O)[C@@H](NC(=O)[C@H](C)NC)C(C)(C)C)[C@H](C(=O)N[C@@H]2CCCc4ccccc42)C3)cc1)C(C)(C)C", "note": "[Example 35, N^1-(((S)-2-((S)-3,3-Dimethyl-2-((S)-2-(methylamino)propanamido)butanoyl)-1,2,3,4-tetra-hydroisoquinolin-3-yl)methyl)-N^4-((S)-2-((S)-3,3-dimethyl-2-((S)-2-(methylamino)propanamido)butanoyl)-3-(((R)-1,2,3,4-tetrahydro-naphthalen-1-yl)carbamoyl)-1,2,3,4-tetra-hydroisoquinolin-7-yl)-N^1-(2,3-dimethylbenzyl) terephthalamide]", "IC50": 0.23},
      {"smiles": "CN[C@@H](C)C(=O)N[C@H](C(=O)N1Cc2ccccc2C[C@H]1CN(Cc1cccc(C)c1C)C(=O)c1ccc(C(=O)N[C@H]2C[C@@H](C(=O)N[C@@H]3CCCc4ccccc43)N(C(=O)[C@@H](NC(=O)[C@H](C)NC)C(C)(C)C)C2)cc1)C(C)(C)C", "note": "[Example 36, N^1-(((S)-2-((S)-3,3-Dimethyl-2-((S)-2-(methylamino)propanamido)butanoyl)-1,2,3,4-tetrahydro-isoquinolin-3-yl)methyl)-N^4-((3S,5S)-1-((S)-3,3-dimethyl-2-((S)-2-(methylamino)propanamido)butanoyl)-5-(((R)-1,2,3,4-tetrahydro-naphthalen-1-yl)carbamoyl)pyrrolidin-3-yl)-N^1-(2,3-dimethyl-benzyl) terephthalamide]", "IC50": 0.09},
      {"smiles": "CN[C@@H](C)C(=O)N[C@H](C(=O)N1Cc2ccccc2C[C@H]1CN(C(=O)c1ccc(C(=O)N[C@H]2C[C@@H](C(=O)N[C@@H]3CCCc4ccccc43)N(C(=O)[C@@H](NC(=O)[C@H](C)NC)C(C)(C)C)C2)cc1)[C@H](C)c1ccccc1F)C(C)(C)C", "note": "[Example 37, N^1-(((S)-2-((S)-3,3-Dimethyl-2-((S)-2-(methylamino)propanamido)butanoyl)-1,2,3,4-tetrahydro-isoquinolin-3-yl)methyl)-N^4-((3S,5S)-1-((S)-3,3-dimethyl-2-((S)-2-(methylamino)propanamido)butanoyl)-5-(((R)-1,2,3,4-tetrahydro-naphthalen-1-yl)carbamoyl)pyrrolidin-3-yl)-N^1-((R)-1-(2-fluorophenyl)ethyl) terephthalamide]", "IC50": 0.23},
      {"smiles": "CN[C@@H](C)C(=O)N[C@H](C(=O)N1Cc2ccccc2CC1C(=O)N(CC1(C(=O)NC2C[C@@H](C(=O)NC3CCCc4ccccc43)N(C(=O)[C@@H](NC(=O)[C@H](C)NC)C(C)(C)C)C2)CC1)[C@@H](COC)c1ccccc1)C(C)(C)C", "note": "(stereo partly drawn) [Example 38, (S)-2-((S)-3,3-Dimethyl-2-((S)-2-(methylamino)propanamido)butanoyl)-N-((1-(((3S,5S)-1-((S)-3,3-dimethyl-2-((S)-2-(methylamino)propanamido)butanoyl)-5-(((R)-1,2,3,4-tetrahydronaphthalen-1-yl)carbamoyl)pyrrolidin-3-yl)carbamoyl)cyclopropyl)methyl)-N-((S)-2-methoxy-1-phenylethyl)-1,2,3,4-tetrahydroisoquinoline-3-carboxamide, 2 TFA]", "IC50": 0.06},
      {"smiles": "CN[C@@H](C)C(=O)N[C@H](C(=O)N1C[C@@H](NC(=O)CCCN(C(=O)[C@@H]2Cc3ccccc3CN2C(=O)[C@@H](NC(=O)[C@H](C)NC)C(C)(C)C)[C@H](C)c2ccccc2F)C[C@H]1C(=O)N[C@@H]1CCCc2ccccc21)C(C)(C)C", "note": "[Example 41, (S)-2-((S)-3,3-Dimethyl-2-((S)-2-(methylamino)propanamido)butanoyl)-N-(4-(((3S,5S)-1-((S)-3,3-dimethyl-2-((S)-2-(methylamino)propanamido)butanoyl)-5-(((R)-1,2,3,4-tetrahydronaphthalen-1-yl)carbamoyl)pyrrolidin-3-yl)amino)-4-oxobutyl)-N-((R)-1-(2-fluorophenyl)ethyl)-1,2,3,4-tetrahydroisoquinoline-3-carboxamide]", "IC50": 0.06},
      {"smiles": "CN[C@@H](C)C(=O)N[C@H](C(=O)N1CC(NC(=O)C2CC2CN(C(=O)[C@@H]2Cc3ccccc3CN2C(=O)[C@@H](NC(=O)[C@H](C)NC)C(C)(C)C)[C@H](C)c2ccccc2F)C[C@H]1C(=O)NC1CCCc2ccccc21)C(C)(C)C", "note": "(stereo partly drawn) [Example 42, (3S)-2-((S)-3,3-Dimethyl-2-((S)-2-(methylamino)propanamido)butanoyl)-N-((2-(((3S,5S)-1-((S)-3,3-dimethyl-2-((S)-2-(methylamino)propanamido)butanoyl)-5-(((R)-1,2,3,4-tetrahydronaphthalen-1-yl)carbamoyl)pyrrolidin-3-yl)carbamoyl)cyclopropyl)methyl)-N-((R)-1-(2-fluorophenyl)ethyl)-1,2,3,4-tetrahydroisoquinoline-3-carboxamide]", "IC50": 0.07},
      {"smiles": "CN[C@@H](C)C(=O)N[C@H](C(=O)N1C[C@@H](NC(=O)C2(CN(C(=O)[C@@H]3Cc4ccccc4CN3C(=O)[C@@H](NC(=O)[C@H](C)NC)C(C)(C)C)[C@H](C)c3cccc(F)c3F)CC2)C[C@H]1C(=O)N[C@@H]1CCCc2ccccc21)C(C)(C)C", "note": "[Example 43, (S)-N-((R)-1-(2,3-Difluorophenyl)ethyl)-2-((S)-3,3-dimethyl-2-((S)-2-(methylamino)propanamido)butanoyl)-N-((1-(((3S,5S)-1-((S)-3,3-dimethyl-2-((S)-2-(methylamino)propanamido)butanoyl)-5-(((R)-1,2,3,4-tetrahydronaphthalen-1-yl)carbamoyl)pyrrolidin-3-yl)carbamoyl)cyclopropyl)methyl)-1,2,3,4-tetrahydroisoquinoline-3-carboxamide]", "IC50": 0.18}
    ]}
  ]
}
